Source: publication PMC6588697, “Lugdunin amplifies innate immune responses in the skin in synergy with host- and microbiota-derived factors” (Nature Communications, 2019)
“And” between values parts separate entries of the source, which are not always exact repeats. Equal values may be shown once.

Test system: HEK293-TLR2 cells
Experiment: CXCL8 expression in HEK-TLR2 cells (qRT-PCR)
Format: cell-based, human
Details: 5 h, two technical replicates, Fig 2b
Protocol: Fig. 2 Induction of chemokine (C-X-C motif) ligand 8/macrophage inflammatory protein-2 (CXCL8/MIP-2) by lugdunin is TLR2/MyD88-dependent. a HEK-control or HEK-TLR2 cells were treated with 2 μM lugdunin for 5 h and subsequently the CXCL8 concentration in the supernatant was analyzed by LEGENDplex^TM (BioLegend). Shown is one representative experiment of three independent experiments with two technical replicates ± s.e.m. b HEK-control or HEK-TLR2 cells were treated with increasing concentrations of lugdunin for 5 h and subsequently expression of CXCL8 was analyzed and normalized to actin. Shown is one representative experiment of three independent experiments with two technical replicates ± s.e.m. c Schematic overview of the mouse experiments: 6–8-week-old female C5BL/6 WT, MyD88-knockout (ko), or 5xTLR-ko mice were epicutaneously treated with 1.5 µg lugdunin or phosphate-buffered saline (PBS) as a control. After 24 h, mice were euthanized, 4 mm skin punches were taken, and further cultured in vitro for 10 h followed by cytokine analysis of the culture supernatant by LEGENDplex^TM (BioLegend). d, e Shown are the mean concentrations of IL-1α (d) or MIP-2 (e) in the skin culture supernatant of two skin punches from four mice each ± s.e.m. Significant differences to control treatments were analyzed by an unpaired two-tailed t test (*P < 0.05; **P < 0.01; ***P < 0.001). f Representative MIP-2-stained paraffin-embedded mouse skin sections. Scale bar, 100 µM. Source data are provided as a Source Data file
Quantitative reverse transcription-polymerase chain reaction (qRT-PCR) was performed in 10 µL reaction volume with SYBR^TM Green PCR Master Mix (Thermo Fisher) according to the manufacturer’s instructions using a LightCycler 96 (Roche Life Science). The initial denaturation step was at 95 °C for 5 min, followed by 40 cycles with 10 s each for the denaturation step at 95 °C, the annealing at individual temperature, and the elongation at 72 °C. Primer sequences and respective annealing temperatures are listed in Supplementary Table 1. […]

Substance: Lugdunin
- CXCL8 expression normalized to actin (HEK-TLR2, lugdunin 0.5 µM, medium = 1): 2.676 and 2.042
- CXCL8 expression normalized to actin (HEK-TLR2, lugdunin 1 µM): 1.404 and 1.257
- CXCL8 expression normalized to actin (HEK-TLR2, lugdunin 2 µM): 3.918 and 4.112
- CXCL8 expression normalized to actin (HEK-TLR2, lugdunin 3 µM): 4.408 and 3.864
- CXCL8 expression normalized to actin (HEK-TLR2, lugdunin 5 µM): 6.364 and 6.916
- CXCL8 expression normalized to actin (HEK-TLR2, lugdunin 10 µM): 9.415 and 10.232
